From US12485116B2, “Pharmaceutical composition for preventing or treating epidemic RNA viral infectious disease” (priority 2020, dated 2025)

What was measured:
SARS-CoV-2 [1] = experiment: Antiviral efficacy by RNA copy numbers (qRT-PCR, RdRp gene), co-treatment, Vero cells
SARS-CoV-2 [2] = experiment: Antiviral efficacy by RNA copy numbers (qRT-PCR), co-treatment, Calu-3 human lung cell line; details: Calu-3 cells; for selectivity index, SI / IC50: 48 hours post-infection; for IC50: co-treatment
Vero cells [3] = experiment: Cytotoxicity, tetrazolium salts-based assay (WST-1), Vero cells; format: cell-based, African green monkeys (Chlorocebus sp.); details: all conditions tested (3.13, 12.5, 50 μM)
SARS-CoV-2 [4] = experiment: Post-infection treatment, viral plaque assay, Calu-3 cells; format: cell-based, SARS-CoV-2 (a Korean isolate); details: Severe acute respiratory syndrome coronavirus 2, Calu-3, 12.5 μM, 48 hours after drug treatment
Protocol: In Experimental Example 6, pyronaridine tetraphosphate or artesunate was treated each in Calu-3 cells at 0, 2, 4, 6, 8, 10, 12, 24 and 36 hours after SARS-CoV-2 (a Korean isolate) inoculation, and evaluated how long hours the inhibitory effect of each drug were retained against virus infections.
Calu-3 cells and viruses were prepared in the same manner as shown in Experimental Example 5.
After dissolving pyronaridine tetraphosphate and artesunate in DMSO each, it was diluted to 12.5 μM using media. At 1 hour after the inoculation with SARS-CoV-2 (MOI=0.1), the supernatant was removed, and Calu-3 cells were washed, followed by the addition of DMEM culture media containing 2% bovine serum. The culture media containing drugs were added at 0, 2, 4, 6, 8, 10, 12, 24 and 36 hours each. At 48 hours after each drug treatment, cell supernatants were harvested and a plaque assay—in which the plaques generated by infectious virus infection were counted in Vero cells, cells used for virus amplification—was performed. The DMEM-F12 medium layer containing 2% agarose was laid on the layer of infected Vero cells, and the number of plaques was counted by using counter-staining with crystal violet, after incubation for 72 hours.

Ebola virus [5] = details: in vitro assays; cited from earlier work
[6] = Cytotoxicity (WST-1), Calu-3 cells; details: human
SARS-CoV-2 [7] = experiment: In vivo antiviral efficacy in SARS-CoV-2-infected hamsters, lung virus titer by plaque assay; parameters: species or system Syrian hamsters; details: 360 mg/kg alone, oral, once at 25 hours post-infection, 4-day post-infection; vehicle control 8.30
Vero cells [8] = details: African green monkey (Chlorocebus sp.)
Ebola virus [9] = details: Hela cells; cited from earlier work
Ebola virus [10] = details: cited from earlier work
in vitro = details: human
Ebola virus [11] = details: Vero cells; cited from earlier work
Vero cells [12] = details: cited from earlier work
Hela cells = details: cited from earlier work
SARS-CoV-2 [13] = experiment: Antiviral efficacy by immunofluorescence staining imaging, pretreatment, Vero cells; details: 50 μM, pretreated 1 hour, 24 hours post-infection
Ebola virus [14] = details: guinea pig models infected with Ebola virus; cited from earlier work
[15] = added at up to 6 hours post-infection
[16] = added at up to 12 hours post-infection
[17] = added at up to 24 hours post-infection
[18] = co-treatment, Vero cells, 24 hours after infection

In the case of `CCN(CCO)CCCC(C)Nc1ccnc2cc(Cl)ccc12` (stereo not drawn) [hydroxychloroquine], the “antiviral efficacy in the monkey cell lines” value (SARS-CoV-2 [1]; monkey cell lines (Vero)) is reported as “showed antiviral efficacy” and the “antiviral effect in the human lung cell lines” value (SARS-CoV-2 [2]; at less than 50 μM) is reported as “no antiviral effect”.

With `C[C@H]1[C@H](OC(=O)CCC(=O)O)O[C@@H]2O[C@@]3(C)CC[C@H]4[C@H](C)CC[C@@H]1[C@@]24OO3` [artesunate] the cytotoxicity (Vero cells [3]) was “no significant cytotoxicity”, the inhibition at 12.5 µM (SARS-CoV-2 [4]; [15]) was 92 to 96% and the inhibition at 12.5 µM (SARS-CoV-2 [4]; [16]) was > 90%. The inhibition at 12.5 µM (SARS-CoV-2 [4]; [17]) was 48%, the “antiviral efficacy against Ebola virus” value (Ebola virus [5]) was “showed an antiviral efficacy” and the CC50 at 48 h [6] was > 100 µM. The inhibition rate (SARS-CoV-2 [1]; 3.13 μM, 48 hours post-infection, Vero cells) was 39%, the inhibition rate (SARS-CoV-2 [1]; 12.5 μM, 24 hours post-infection, Vero cells) was 40% and the inhibition rate (SARS-CoV-2 [1]; 12.5 μM, 48 hours post-infection, Vero cells) was 51%. For the same compound, the “inhibition rate against virus” value (SARS-CoV-2 [1]; 50 μM, Vero cells, co-treatment) was 83%, the “selectivity index, SI” value (SARS-CoV-2 [2]) was > 220.8 and the IC50 (SARS-CoV-2 [2]) was 0.45 µM.

With `COc1ccc2nc3cc(Cl)ccc3c(Nc3cc(CN4CCCC4)c(O)c(CN4CCCC4)c3)c2n1` [pyronaridine] the inhibition at 12.5 µM (SARS-CoV-2 [4]; [15]) was > 99%, the inhibition at 12.5 µM (SARS-CoV-2 [4]; [16]) was > 94% and the inhibition at 12.5 µM (SARS-CoV-2 [4]; [17]) was 90%. The “median infectious virus titer in the lung tissues” value (SARS-CoV-2 [7]) was 7.22 Log10 PFU, the “cytotoxicity increased by drug pretreatment” value (Vero cells [8]) was 17% and the EC50 (Ebola virus [9]) was 0.42 to 1.12 µM. The “virus titer and survival rate” value (Ebola virus [10]; Ebola virus-challenged mouse models) was “significantly improved”, the “mortality and viral infection rate” value (Ebola virus [10]; mouse models challenged with Ebola virus) was “significantly inhibited” and the CC50 at 48 h (in vitro) was > 100 µM. For the same compound, the “antiviral activity against Ebola virus at a concentration below CC50” value (Ebola virus [11]) was “no antiviral activity”, the CC50 (Vero cells [12]) was 1.3 µM and the CC50 (Hela cells) was 3.1 µM. The virus inhibition rate (SARS-CoV-2 [13]) was 70%, the “selectivity index, SI” value (SARS-CoV-2 [1]; Vero cells, co-treatment) was > 1.40 and the EC50 (SARS-CoV-2 [1]; [18]) was 8.27 µM. For the same compound, the “inhibition at non-cytotoxic concentrations” value (SARS-CoV-2 [1]; [18]) was “more than 90%”, the “selectivity index, SI” value (SARS-CoV-2 [2]) was > 11.66 and the IC50 (SARS-CoV-2 [2]) was 8.58 µM.

In the case of `CCN(CC)CCCC(C)Nc1ccnc2cc(Cl)ccc12` (stereo not drawn) [chloroquine], the antiviral effect (Ebola virus [14]) is given as “did not show antiviral effect”.
